The experiment addresses T1, S. aureus TrmD (Staphylococcus aureus, UniProt Q2FZ43).
T1 construct: made in house; host or cells: E. coli BL21
T1 sequence (Q2FZ43 1-245): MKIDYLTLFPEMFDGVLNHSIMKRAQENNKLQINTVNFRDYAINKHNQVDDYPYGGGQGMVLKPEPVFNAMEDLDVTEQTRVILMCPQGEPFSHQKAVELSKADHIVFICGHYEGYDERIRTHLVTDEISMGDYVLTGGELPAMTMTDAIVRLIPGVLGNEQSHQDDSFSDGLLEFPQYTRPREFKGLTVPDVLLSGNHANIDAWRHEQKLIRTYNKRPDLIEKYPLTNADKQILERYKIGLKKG
The experiment in a line: nanoSAR direct-to-biology FP displacement screening of crude triazoles. Format: binding. To be noted: crude triazole at 1 μM, assuming full conversion, 500 nM TrmD, 10 nM tracer 4; for inhibition at 1 µM: read-out: % displaced tracer. An outline of the steps: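 S. aureus TrmD (500 nM) with tracer 4 (10 nM) in Tris/NaCl/MgCl2/glycerol buffer, pH 7.5, was challenged with unpurified triazoles from in situ CuAAC of alkyne 7 with a 320-member azide library.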

As for `C[C@H](c1ccccc1F)n1cc(-c2c[nH]c3nc[nH]c(=O)c23)nn1` [Compound 01E02, Fc1c(cccc1)[C@H](N2N=NC(C=3C=4C(=O)NC=NC4NC3)=C2)C], the inhibition at 1 µM was 50%.

With `O=c1[nH]cnc2[nH]cc(-c3cn(-c4cccc5ccncc45)nn3)c12` [Compound 03F04, O=C1NC=NC=2NC=C(C=3N=NN(c4c5c(ccnc5)ccc4)C3)C12], the inhibition at 1 µM was determined as 22%.

With `O=c1[nH]cnc2[nH]cc(-c3cn(C[C@H](O)Cc4ccccc4)nn3)c12` [Compound 03D03, O=C1NC=NC=2NC=C(C=3N=NN(C3)C[C@H](O)Cc4ccccc4)C12], the inhibition at 1 µM worked out at 39%.

With `O=C(NCCCn1cc(-c2c[nH]c3nc[nH]c(=O)c23)nn1)c1c[nH]nn1` [Compound 02B11, O=C1NC=NC=2NC=C(C=3N=NN(C3)CCCNC(=O)C=4N=NNC4)C12], the inhibition at 1 µM worked out at 10%.

As for `O=c1[nH]cnc2[nH]cc(-c3cn(Cc4cn5ccccc5n4)nn3)c12` [Compound 01E04, O=C1NC=NC=2NC=C(C=3N=NN(C3)CC=4N=C5N(C4)C=CC=C5)C12], the inhibition at 1 µM was determined as 46%.

Turning to `N#Cc1cnn(CCn2cc(-c3c[nH]c4nc[nH]c(=O)c34)nn2)c1` [Compound 02G10, O=C1NC=NC=2NC=C(C=3N=NN(C3)CCN4N=CC(C#N)=C4)C12], the inhibition at 1 µM was determined as 38%.

Turning to `O=c1[nH]cnc2[nH]cc(-c3cn(Cc4ccc(-n5cccn5)cc4)nn3)c12` [Compound 02E09, O=C1NC=NC=2NC=C(C=3N=NN(C3)Cc4ccc(N5N=CC=C5)cc4)C12], the inhibition at 1 µM came to 62%.

Take `O=c1[nH]cnc2[nH]cc(-c3cn([C@H]4CCCCC[C@@H]4O)nn3)c12` [Compound 02E03, O=C1NC=NC=2NC=C(C=3N=NN(C3)[C@@H]4[C@@H](O)CCCCC4)C12]: the inhibition at 1 µM is 10%.

Take `O=c1[nH]cnc2[nH]cc(-c3cn(CCN4CCCC4)nn3)c12` [Compound 01A04, O=C1NC=NC=2NC=C(C=3N=NN(C3)CC[NH+]4CCCC4)C12]: the inhibition at 1 µM was determined as 22%.

As to `CO[C@H]1COC[C@@H]1n1cc(-c2c[nH]c3nc[nH]c(=O)c23)nn1` [Compound 04D03, O=C1NC=NC=2NC=C(C=3N=NN(C3)[C@@H]4[C@@H](OC)COC4)C12], the inhibition at 1 µM is 37%.

In the case of `COC(=O)CCCn1cc(-c2c[nH]c3nc[nH]c(=O)c23)nn1` [Compound 03B10, O=C(OC)CCCN1N=NC(C=2C=3C(=O)NC=NC3NC2)=C1], the inhibition at 1 µM came to 58%.

For the compound `C[C@H](N)Cn1cc(-c2c[nH]c3nc[nH]c(=O)c23)nn1` [Compound 02F09, O=C1NC=NC2=C1C(C3=CN(C[C@@H](N)C)N=N3)=CN2], the “% displaced tracer” value was 26%.

As to `O=c1[nH]cnc2[nH]cc(-c3cn(Cc4noc5c4CCC5)nn3)c12` [Compound 01C04, O=C1NC=NC=2NC=C(C=3N=NN(C3)CC4=NOC5=C4CCC5)C12], the inhibition at 1 µM was 41%.

Regarding `O=c1[nH]cnc2[nH]cc(-c3cn(CCOCC4CCCC4)nn3)c12` [Compound 03B11, O=C1NC=NC=2NC=C(C=3N=NN(C3)CCOCC4CCCC4)C12], the inhibition at 1 µM worked out at 44%.

Turning to `NC(=O)c1cc(-n2cc(-c3c[nH]c4nc[nH]c(=O)c34)nn2)ccn1` [Compound 01F05, O=C(N)c1nccc(N2N=NC(C=3C=4C(=O)NC=NC4NC3)=C2)c1], the inhibition at 1 µM turned out to be 16%.

As to `O=c1[nH]cnc2[nH]cc(-c3cn(C[C@H]4C[C@@H]5C[C@@H]5C4)nn3)c12` [Compound 03A08, O=C1NC=NC=2NC=C(C=3N=NN(C3)C[C@@H]4C[C@@H]5[C@@H](C5)C4)C12], the inhibition at 1 µM came to 76%.

`O=c1[nH]cnc2[nH]cc(-c3cn([C@@H]4CCc5cc(Cl)ccc54)nn3)c12` [Compound 01C03, Clc1cc2c(cc1)[C@H](N3N=NC(C=4C=5C(=O)NC=NC5NC4)=C3)CC2]: the inhibition at 1 µM came to 72%.

Take `NCCOCCn1cc(-c2c[nH]c3nc[nH]c(=O)c23)nn1` [Compound 02F12, O=C1NC=NC=2NC=C(C=3N=NN(C3)CCOCC[NH3+])C12]: the inhibition at 1 µM worked out at 39%.

Consider `O=c1[nH]cnc2[nH]cc(-c3cn(Cc4ncoc4C4CCC4)nn3)c12` [Compound 02F08, O=C1NC=NC=2NC=C(C=3N=NN(C3)CC=4N=COC4C5CCC5)C12], for which the inhibition at 1 µM amounted to 61%.

For `COc1ccc(-n2cc(-c3c[nH]c4nc[nH]c(=O)c34)nn2)cc1` [Compound 02H08, O=C1NC=NC=2NC=C(C=3N=NN(c4ccc(OC)cc4)C3)C12], the inhibition at 1 µM was 9%.

With `O=c1[nH]cnc2[nH]cc(-c3cn(CCN4CCC(O)CC4)nn3)c12` [Compound 01H11, O=C1NC=NC=2NC=C(C=3N=NN(C3)CC[N@H+]4CC[C@H](O)CC4)C12], the inhibition at 1 µM was determined as 38%.

Turning to `O=c1[nH]cnc2[nH]cc(-c3cn(Cc4cnn(-c5ccccc5)c4)nn3)c12` [Compound 01A02, O=C1NC=NC=2NC=C(C=3N=NN(C3)CC=4C=NN(c5ccccc5)C4)C12], the inhibition at 1 µM was determined as 81%.

On to `CS(=O)(=O)NCCn1cc(-c2c[nH]c3nc[nH]c(=O)c23)nn1` [Compound 01F03, S(=O)(=O)(NCCN1N=NC(C=2C=3C(=O)NC=NC3NC2)=C1)C], for which the inhibition at 1 µM worked out at 62%.

As to `Cc1ccc(Cn2cc(-c3c[nH]c4nc[nH]c(=O)c34)nn2)o1` [Compound 01H03, O=C1NC=NC=2NC=C(C=3N=NN(C3)CC=4OC(=CC4)C)C12], the inhibition at 1 µM stood at 33%.

Take `O=c1[nH]cnc2[nH]cc(-c3cn([C@H]4CC5(CCC5)Oc5ccc(F)cc54)nn3)c12` [Compound 03B06, Fc1cc2c(OC3(C[C@@H]2N4N=NC(C=5C=6C(=O)NC=NC6NC5)=C4)CCC3)cc1]: the inhibition at 1 µM came out at 70%.

In the case of `Cc1nc(Cn2cc(-c3c[nH]c4nc[nH]c(=O)c34)nn2)cs1` [Compound 01F09, S1C(=NC(=C1)CN2N=NC(C=3C=4C(=O)NC=NC4NC3)=C2)C], the inhibition at 1 µM turned out to be 53%.

With `COC(=O)c1cncc(-n2cc(-c3c[nH]c4nc[nH]c(=O)c34)nn2)c1` [Compound 02F05, O=C(OC)c1cncc(N2N=NC(C=3C=4C(=O)NC=NC4NC3)=C2)c1], the inhibition at 1 µM was determined as 11%.

In the case of `NCCCCCCn1cc(-c2c[nH]c3nc[nH]c(=O)c23)nn1` [Compound 03H09, O=C1NC=NC=2NC=C(C=3N=NN(C3)CCCCCC[NH3+])C12], the inhibition at 1 µM came out at 50%.

On to `CC(C)(C)Cn1cc(-c2c[nH]c3nc[nH]c(=O)c23)nn1` [Compound 04A03, O=C1NC=NC=2NC=C(C=3N=NN(C3)CC(C)(C)C)C12], for which the inhibition at 1 µM is 19%.

In the case of `O=c1[nH]cnc2[nH]cc(-c3cn(-c4ccc5c(c4)CCC5)nn3)c12` [Compound 01F08, O=C1NC=NC=2NC=C(C=3N=NN(c4cc5c(cc4)CCC5)C3)C12], the inhibition at 1 µM came to 5%.

For `O=c1[nH]cnc2[nH]cc(-c3cn(-c4ccc(S(F)(F)(F)(F)F)cc4)nn3)c12` [Compound 03A04, S(F)(F)(F)(F)(F)c1ccc(N2N=NC(C=3C=4C(=O)NC=NC4NC3)=C2)cc1], the inhibition at 1 µM was determined as 16%.

With `CN(C)CCCn1cc(-c2c[nH]c3nc[nH]c(=O)c23)nn1` [Compound 01E08, O=C1NC=NC=2NC=C(C=3N=NN(C3)CCC[NH+](C)C)C12], the inhibition at 1 µM was determined as 35%.

As for `COC(=O)C1(n2cc(-c3c[nH]c4nc[nH]c(=O)c34)nn2)CC1` [Compound 03H06, O=C(OC)C1(N2N=NC(C=3C=4C(=O)NC=NC4NC3)=C2)CC1], the inhibition at 1 µM is 24%.

Regarding `CN(C)c1cccc(OCCCn2cc(-c3c[nH]c4nc[nH]c(=O)c34)nn2)c1` [Compound 03E12, O=C1NC=NC=2NC=C(C=3N=NN(C3)CCCOc4cc(N(C)C)ccc4)C12], the inhibition at 1 µM was found to be 80%.

For the compound `O=c1[nH]cnc2[nH]cc(-c3cn(-c4ccccc4)nn3)c12` [Compound 04F04, O=C1NC=NC=2NC=C(C=3N=NN(c4ccccc4)C3)C12], the inhibition at 1 µM is 33%.

Turning to `C[C@H](c1csc2ccccc12)n1cc(-c2c[nH]c3nc[nH]c(=O)c23)nn1` [Compound 04H01, S1c2c(cccc2)C(=C1)[C@H](N3N=NC(C=4C=5C(=O)NC=NC5NC4)=C3)C], the inhibition at 1 µM was determined as 87%.

`CN(CCn1cc(-c2c[nH]c3nc[nH]c(=O)c23)nn1)Cc1cccc(F)c1` [Compound 02H12, Fc1cc(ccc1)C[N@H+](CCN2N=NC(C=3C=4C(=O)NC=NC4NC3)=C2)C]: the inhibition at 1 µM was 65%.

As for `O=c1[nH]cnc2[nH]cc(-c3cn(-c4ccc5c(c4)OCO5)nn3)c12` [Compound 03C05, O=C1NC=NC=2NC=C(C=3N=NN(c4cc5OCOc5cc4)C3)C12], the inhibition at 1 µM was 59%.

Consider `O=c1[nH]cnc2[nH]cc(-c3cn(CCCN4CCC(C(F)(F)F)CC4)nn3)c12` [Compound 02D01, FC(F)(F)[C@@H]1CC[N@H+](CC1)CCCN2N=NC(C=3C=4C(=O)NC=NC4NC3)=C2], for which the inhibition at 1 µM worked out at 23%.

Regarding `COCC(COC)n1cc(-c2c[nH]c3nc[nH]c(=O)c23)nn1` [Compound 03D06, O=C1NC=NC=2NC=C(C=3N=NN(C3)C(COC)COC)C12], the inhibition at 1 µM is 24%.

Turning to `O=c1[nH]cnc2[nH]cc(-c3cn(-c4ccc5c(c4)CNCC5)nn3)c12` [Compound 01G04, O=C1NC=NC=2NC=C(C=3N=NN(c4cc5c(cc4)CC[NH2+]C5)C3)C12], the inhibition at 1 µM was found to be 33%.

On to `O=c1[nH]cnc2[nH]cc(-c3cn(-c4ccccc4Cl)nn3)c12` [Compound 02F03, Clc1c(N2N=NC(C=3C=4C(=O)NC=NC4NC3)=C2)cccc1], for which the inhibition at 1 µM was found to be 22%.

In the case of `O=c1[nH]cnc2[nH]cc(-c3cn(C[C@H]4COc5ccccc5O4)nn3)c12` [Compound 02A07, O=C1NC=NC=2NC=C(C=3N=NN(C3)C[C@@H]4Oc5c(OC4)cccc5)C12], the inhibition at 1 µM was 81%.

In the case of `O=c1[nH]cnc2[nH]cc(-c3cn(CC[C@@H]4CCCC4(F)F)nn3)c12` [Compound 02D11, F[C@@]1(F)[C@H](CCN2N=NC(C=3C=4C(=O)NC=NC4NC3)=C2)CCC1], the inhibition at 1 µM was determined as 75%.

For the origin of these results see publication PMC12751012, “Nanoscale Direct-to-Biology Optimization and Structural Insights into Selective S. aureus TrmD Inhibitors” (Journal of Medicinal Chemistry, 2025).
